Measurements published in patent US12384749B2, “Onium salt of nitrogen-containing heteroaryl compound and pest control agent” (Nippon Soda Co., Ltd., priority 2019, dated 2025).

Assays:
Format in all cases: in vivo
Mythimna separata = assay: Efficacy test against Mythimna separata (treated artificial feed); conditions: 1 μl of emulsion (I) (5% by mass active ingredient) mixed with 0.8 g artificial feed; second-instar larvae; 25° C.; after five days
Excerpt: (§1) 5 parts by mass of a compound of the present invention, 93.6 parts by mass of dimethylformamide, and 1.4 parts by mass of polyoxyethylene alkyl aryl ether were mixed and dissolved to obtain an emulsion (1) containing 5% by mass of the active ingredient.
(§2) 93.6 parts by mass of dimethylformamide, and 1.4 parts by mass of polyoxyethylene alkyl aryl ether were mixed and dissolved to obtain an emulsion (II).
0.8 g of commercially-available artificial feed (Insect LFS, manufactured by Nosan Corporation) and 1 μl of the emulsion (I) were mixed well, and then 0.2 g of the mixture per treated area was packed into plastic test containers (each having a capacity of 1.4 ml) as test feeds.
Two second-instar larvae of Mythimna separata were left per treated area, and then the test containers were sealed with plastic covers. The test containers were placed in a thermostatic chamber at 25° C., and, after five days had passed therefrom, the mortality and the feed intake were measured. The test was repeated twice.
(§3) In addition, the test was conducted under the same conditions as described above, except that the emulsion (II) was used instead of the emulsion (I), and evaluated as a solvent control area.
The compounds A-2, A-3, A-4, A-9, A-10, A-11, A-15, and A-16 were subjected to an efficacy test against Mythimna separata. […] The mortality was calculated in accordance with the following equation. Mortality (%)=(Died insect number/Tested insect number)×100

Spodoptera litura = assay: Efficacy test against Spodoptera litura (cabbage leaf dip); conditions: foliar, 144 h, 125 ppm by mass, cabbage leaf immersed 30 seconds, second-instar larvae, 25° C., humidity 60%, after six days
Method: as §1
The emulsion (I) was diluted with water such that the amount of the compound of the present invention became 125 ppm by mass. A cabbage leaf was immersed in the diluted solution for 30 seconds. The cabbage leaf was air-dried and then put in a petri dish, followed by leaving five second-instar larvae of Spodoptera litura therein. The petri dish was placed in a thermostatic chamber at a temperature of 25° C. and a humidity of 60%. After six days had passed from leaving the larvae, life or death was assessed and the mortality was calculated. The test was repeated twice.

Helicoverpa armigera = assay: Efficacy test against Helicoverpa armigera (cabbage leaf dip); conditions: foliar, 144 h, 125 ppm by mass, cabbage leaf immersed 30 seconds, second-instar larvae, 25° C., humidity 60%, after six days
Nilaparvata lugens = assay: Efficacy test against Nilaparvata lugens (rice seedling dip); conditions: 240 h, 125 ppm by mass, rice seedling immersed 30 seconds, second-instar larvae, 25° C., humidity 65%, after ten days
Method: as §1
The emulsion (I) was diluted with water such that the amount of the compound of the present invention became 125 ppm by mass. A rice seedling was immersed in the diluted solution for 30 seconds, air-dried, and then placed in a plastic case, followed by leaving five second-instar larvae of Nilaparvata lugens therein. The plastic case was placed in a thermostatic chamber at a temperature of 25° C. and a humidity of 65%. After ten days had passed therefrom, life or death was assessed and the mortality was calculated. The test was repeated twice.

Tetranychus urticae = assay: Efficacy test against Tetranychus urticae (spray on kidney bean); conditions: 125 ppm by mass sprayed on kidney bean; female adults removed after three days; living number counted ten days after spraying; 25° C., humidity 65%
Excerpt: as §1, §2
Five female adults of Tetranychus urticae were left on primary leaves of kidney bean planted in a 3-sun pot. The emulsion (I) was diluted with water such that the amount of the compound of the present invention became 125 ppm by mass. The diluted solution was sprayed on the kidney bean and evaluated as a treated area. The 3-sun pot was placed in a thermostatic chamber at a temperature of 25° C. and a humidity of 65%, and after three days had passed from spraying, the female adults of Tetranychus urticae were removed to leave only laid eggs remaining on the leaves. After ten days had passed from spraying, the number of living Tetranychus urticae was counted. The test was repeated twice.
as §3
The control ratio was calculated in accordance with the following equation. Control ratio (%)=100×[1−Nt/Nc] […]

Aphis gossypii = assay: Efficacy test against Aphis gossypii (spray on cucumber); conditions: 120 h, 125 ppm by mass sprayed on cucumber, first-instar larvae, 25° C., humidity 60%, after five days
Excerpt: as §1
Cucumber was sown in a 3-sun pot. After ten days had passed from germination, a female adult of Aphis gossypii was left on the cucumber. On the next day, laid first-instar larvae were left, and the female adult was removed. The emulsion (I) was diluted with water such that the amount of the compound of the present invention became 125 ppm by mass. The diluted solution was sprayed on the cucumber. Then, the cucumber was placed in a thermostatic chamber at a temperature of 25° C. and a humidity of 60%. After five days had passed therefrom, life or death of Aphis gossypii was assessed and the mortality was calculated.

`O=C([N-][n+]1ccccn1)c1ccc(-c2ccc(OC(F)(F)C(F)F)cc2)nc1` [Compound A-2] was tested, and the “mortality or feed intake relative to the feed intake at the solvent control area” value (Mythimna separata) was 100% mortality of Mythimna separata or 10% or less of the feed intake.

For `O=C([N-][n+]1ccccn1)c1ccc(-c2ccc(OCC(F)(F)F)nc2)nc1` [Compound A-3], the “mortality or feed intake relative to the feed intake at the solvent control area” value (Mythimna separata) was 100% mortality of Mythimna separata or 10% or less of the feed intake.

In the case of `O=C([N-][n+]1cnn(CC(F)(F)F)c1)c1ccc(-c2ccc(OC(F)(F)C(F)F)cc2)c(Cl)c1` [Compound A-4], the “mortality or feed intake relative to the feed intake at the solvent control area” value (Mythimna separata) is reported as 100% mortality of Mythimna separata or 10% or less of the feed intake and the mortality at 125 ppm (Spodoptera litura) is reported as at least 80%.

In the case of `Cn1cc[n+]([N-]C(=O)c2ccc(-c3ccc(OC(F)(F)C(F)F)cc3)cc2)c1` [Compound A-9], the mortality at 125 ppm (Helicoverpa armigera) is reported as at least 90%, the “mortality or feed intake relative to the feed intake at the solvent control area” value (Mythimna separata) is reported as 100% mortality of Mythimna separata or 10% or less of the feed intake and the mortality at 125 ppm (Spodoptera litura) is reported as at least 80%.

In the case of `O=C([N-][n+]1ccsc1)c1ccc(-c2ccc(OC(F)(F)C(F)F)cc2)cc1` [Compound A-10], the “mortality or feed intake relative to the feed intake at the solvent control area” value (Mythimna separata) is reported as 100% mortality of Mythimna separata or 10% or less of the feed intake.

In the case of `O=C([N-][n+]1ccccn1)c1ccc(-c2ccc(OC(F)(F)C(F)F)cc2)cc1` [Compound A-11], the mortality at 125 ppm (Nilaparvata lugens) is reported as at least 80%, the “mortality or feed intake relative to the feed intake at the solvent control area” value (Mythimna separata) is reported as 100% mortality of Mythimna separata or 10% or less of the feed intake and the mortality at 125 ppm (Spodoptera litura) is reported as at least 80%.

`Cn1cc[n+]([N-]C(=O)c2ccc(-c3ccc(OC(F)(F)F)cc3)cc2)c1` [Compound A-13] showed a mortality at 125 ppm (Spodoptera litura) of at least 80%.

For `O=C([N-][n+]1ccncc1)c1ccc(-c2ccc(OC(F)(F)F)cc2)cc1` [Compound A-15], the “mortality or feed intake relative to the feed intake at the solvent control area” value (Mythimna separata) was 100% mortality of Mythimna separata or 10% or less of the feed intake.

`O=C([N-][n+]1ccccn1)c1ccc(-c2ccc(OC(F)(F)F)cc2)cc1` [Compound A-16] was tested, and the “mortality or feed intake relative to the feed intake at the solvent control area” value (Mythimna separata) was 100% mortality of Mythimna separata or 10% or less of the feed intake.

Molecule `O=C([N-][n+]1ccccn1)c1ccc(C(F)(F)F)cc1` [Compound A-18] has a control ratio (Tetranychus urticae) of at least 90%.

`O=C([N-][n+]1ccncc1)c1ccc(C(F)(F)F)cc1` [Compound A-19] showed a mortality at 125 ppm (Aphis gossypii) of at least 80%.
